Each structure is given as a SMILES string. Counter-ions that a name gives are not always drawn.

The assay addresses T1, lysyl oxidase (Bos taurus, UniProt P33072).
T1 sequence (P33072 170-418): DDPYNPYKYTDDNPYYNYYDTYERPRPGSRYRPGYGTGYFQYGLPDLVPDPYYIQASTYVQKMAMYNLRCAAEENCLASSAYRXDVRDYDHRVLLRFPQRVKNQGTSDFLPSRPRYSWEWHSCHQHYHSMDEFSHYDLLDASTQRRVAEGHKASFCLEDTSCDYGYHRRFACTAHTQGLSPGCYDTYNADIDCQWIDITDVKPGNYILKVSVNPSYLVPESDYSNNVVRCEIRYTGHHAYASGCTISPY
Briefly: Lysyl oxidase inhibition (fluorometric assay, cadaverine substrate, horseradish peroxidase/homovanillic acid). The conditions noted are these: lysyl oxidase preparation from bovine aorta, 55° C., 10 minutes, pH 8.2 borate buffer, read-out: IC50 (concentration of test compound required to inhibit the enzyme activity by 50 percent). Type of assay: biochemical. Here is the method:
Lysyl oxidase preparation is obtained from bovine aorta by the procedures modified from M. A. Williams and H. M. Kagan, Anal. Biochem. 149, 430-437 (1985) and H. M. Kagan and K. A. Sullivan, Methods in Enzyml. 82, 637-650 (1982). The aorta is obtained fresh on the day of the enzyme preparation and is maintained at 4° C. for the duration of its use in the experiments. The aorta is ground fine and is homogenized for 90 seconds in buffer (2.5 ml of a buffer consisting of 16 mM potassium phosphate and 1 mM phenylmethylsulfonyl fluoride/g of tissue) with 0.15M NaCl added, then the mixture is centrifuged (20 minutes at 11,000×g). The homogenization followed by centrifugation procedure is repeated with buffer plus 0.15 M NaCl, buffer alone, and buffer plus 1M urea. After homogenization in 1M urea, the mixture is stirred for 1 hour prior to centrifugation. The resulting pellet is homogenized in buffer plus 4M urea, stirred for 18 hours, and centrifuged. The supernatant with lysyl oxidase activity is saved. The tissue is homogenized in buffer plus 4M urea, stirred overnight, and centrifuged twice more. The supernatants with lysyl oxidase activity are saved.
The assay is adopted from that of P. C. Trackman, et al., Anal. Biochem. 113, 336-342 (1981). Each assay consists of two tubes, one that contains 0.2 mM β-aminopropionitrile, BAPN, from the start and one to which BAPN is added to quench the reaction. Lysyl oxidase preparation (0.150 ml), urea (0.300 ml, 4M), buffer (0.930 ml, 200 mM borate at pH =8.2), homovanillic acid (0.020 ml of 50 mM solution), and horseradish peroxidase (0.010 ml of Sigma Type II at 5 mg/ml protein) are incubated for 2 minutes at 55° C. in a test tube. Cadaverine (0.100 ml of 150 mM) and test compound, if any, is added and the incubation continued at 55° C. for an additional 10 minutes. The test tubes containing this mixture are then cooled in a ice bath after adding BAPN to any tubes not containing it. The difference in fluorescence (excitation 315 nm and emission 425 nm) between corresponding tubes that received BAPN at 0 minutes and at 10 minutes is a measure of enzyme activity. A standard curve to determine the amount of cadaverine converted by lysyl oxidase is prepared as follows. Assay mixtures containing BAPN are made up as described and known amounts of hydrogen peroxide are added simultaneously with cadaverine and the fluorescence changes after 10 minutes reaction are determined.
Using this method the lysyl oxidase inhibiting activity expressed as IC50 (inhibitory concentration), that is the concentration of test compound required to inhibit the enzyme activity by 50 percent, was determined for various compounds of this invention.
`C=C=C(CN)CCCCCC` [β-Ethenylidene-1-Octanamine Hydrochloride]: the IC50 was found to be 1 nM. Regarding `C=C=C(CN)c1cccs1` [β-Ethenylidene-2-Thiopheneethanamine-4-Methylbenzenesulfonate], the IC50 turned out to be 10 nM. Consider `C=C=C(CN)c1ccc(OC)cc1` [β-Ethenylidene-4-Methoxybenzeneethanamine-4-Methylbenzenesulfonate], for which the IC50 was 10 nM.

`C=C=C(CN)CCc1ccccc1` [β-Ethenylidenebenzenebutanamine Hydrochloride]: the IC50 was 1 nM. As to `C=C=C(CN)CCCc1ccccc1` [β-Ethenylidenebenzenepentanamine Hydrochloride], the IC50 amounted to 1 nM. The value for `C=C=C(CN)c1cc2ccccc2s1` [β-Ethylenylidene-Benzo[β]Thiophene-2-Ethanamine Hydrochloride] was 10 nM.

The values above are taken from patent publication US5120764A, “Inhibitors of lysyl oxidase” (Merrell Dow Pharmaceuticals Inc., priority 1988, dated 1992).
